Values quoted from earlier work, collected in patent publication US8613858B2, “Separation process” (Dupont Nutrition Biosciences APS, priority 2005, dated 2013).

Legend:
[1] = characteristic properties of model compounds
[2] = characteristic properties of model compounds; remark: listed apart in the source

SMILES	LogPOW [1]	Water solubility [2] [mg/mL]
C[N+](C)(C)CC(=O)O [Betaine]	−2.93	611
O=C(O)CC(O)(CC(=O)O)C(=O)O [Citric acid]	−1.67	
OCC(O)CO [Glycerol]	−1.76	
